According to patent publication US20160297830A1, “NOVEL COMPOUNDS USEFUL FOR THE TREATMENT OF BACTERIAL INFECTIOUS DISEASES” (GALAPAGOS NV, priority 2013, published 2016):
Converted amounts (≈) assume the structure as drawn. Read-outs that look alike come from different tables or passages of the source.

Tests used:
S. aureus Sa1 ATCC 13709 = test: microbe, parasite or virus in culture; type: cell-based; settings: S. aureus Sa1 ATCC 13709, sensitive strain, Mueller-Hinton Broth, 37° C.; for MIC: Staphylococcus aureus, ATCC13709, read-out: MIC Sa1
[1] = system: S. aureus Sa26 ATCC 25923; test: Antibacterial activity assay (MIC), S. aureus Sa26; type: cell-based; settings: for MIC: Staphylococcus aureus
S. aureus Sa4 NCTC 6571 = test: Antibacterial activity assay (MIC), S. aureus Sa4; type: cell-based; settings: S. aureus Sa4 NCTC 6571, sensitive strain; for MIC: Staphylococcus aureus, NCTC6571, read-out: MIC Sa4
[2] = system: S. aureus Sa2 clinical strain NCIMB 41953, MRSA; test: microbe, parasite or virus in culture; type: cell-based; settings: for MIC Sa2: S. aureus Sa2 clinical strain, MRSA, Erythromycin Resistant, Fluoroquinolone resistant
[3] = system: H. influenza Hi3 ATCC 31517; test: organism not typed; type: cell-based; settings: read-out: MIC Hi3
[4] = system: H. influenza Hi10 clinical strain; test: organism not typed; type: cell-based; settings: read-out: MIC Hi10
[5] = system: H. influenza Hi47 clinical strain, Ampicillin Resistant; test: organism not typed; type: cell-based; settings: for MIC: read-out: MIC Hi47; for MIC Hi47: H. influenza Hi47 clinical strain, Ampicillin Resistant
[6] = system: H. influenza Hi106 ATCC 51907; test: organism not typed; type: cell-based; settings: read-out: MIC Hi106
E. coli Ec1 ATCC 25922 = test: Antibacterial activity assay (MIC), E. coli Ec1; type: cell-based; settings: E. coli Ec1 ATCC 25922, sensitive strain; for MIC: Escherichia coli, ATCC25922, read-out: MIC Ec1
[7] = system: E. coli Ec50 efflux pump KO; test: microbe, parasite or virus in culture; type: cell-based; settings: for MIC: Escherichia coli, read-out: MIC Ec50 efflux pump KO; for MIC Ec50 efflux pump KO: E. coli Ec50 efflux pump KO
[8] = system: E. coli Ec113 efflux pump KO; test: microbe, parasite or virus in culture; type: cell-based; settings: for MIC: Escherichia coli, read-out: MIC Ec113 efflux pump KO; for MIC Ec113 efflux pump KO: E. coli Ec113 efflux pump KO
[9] = system: Methicillin Resistant S. aureus (MRSA); test: Neutropenic mouse thigh infection model; settings: Thigh Sa
[10] = biological target: DNA Polymerase IIIα (DnaE) from Staphylococcus aureus (Staphylococcus aureus, UniProt Q6GG04); test: biochemical
DNA Polymerase IIIα (DnaE) from Staphylococcus aureus, sequence (Q6GG04 1-1022): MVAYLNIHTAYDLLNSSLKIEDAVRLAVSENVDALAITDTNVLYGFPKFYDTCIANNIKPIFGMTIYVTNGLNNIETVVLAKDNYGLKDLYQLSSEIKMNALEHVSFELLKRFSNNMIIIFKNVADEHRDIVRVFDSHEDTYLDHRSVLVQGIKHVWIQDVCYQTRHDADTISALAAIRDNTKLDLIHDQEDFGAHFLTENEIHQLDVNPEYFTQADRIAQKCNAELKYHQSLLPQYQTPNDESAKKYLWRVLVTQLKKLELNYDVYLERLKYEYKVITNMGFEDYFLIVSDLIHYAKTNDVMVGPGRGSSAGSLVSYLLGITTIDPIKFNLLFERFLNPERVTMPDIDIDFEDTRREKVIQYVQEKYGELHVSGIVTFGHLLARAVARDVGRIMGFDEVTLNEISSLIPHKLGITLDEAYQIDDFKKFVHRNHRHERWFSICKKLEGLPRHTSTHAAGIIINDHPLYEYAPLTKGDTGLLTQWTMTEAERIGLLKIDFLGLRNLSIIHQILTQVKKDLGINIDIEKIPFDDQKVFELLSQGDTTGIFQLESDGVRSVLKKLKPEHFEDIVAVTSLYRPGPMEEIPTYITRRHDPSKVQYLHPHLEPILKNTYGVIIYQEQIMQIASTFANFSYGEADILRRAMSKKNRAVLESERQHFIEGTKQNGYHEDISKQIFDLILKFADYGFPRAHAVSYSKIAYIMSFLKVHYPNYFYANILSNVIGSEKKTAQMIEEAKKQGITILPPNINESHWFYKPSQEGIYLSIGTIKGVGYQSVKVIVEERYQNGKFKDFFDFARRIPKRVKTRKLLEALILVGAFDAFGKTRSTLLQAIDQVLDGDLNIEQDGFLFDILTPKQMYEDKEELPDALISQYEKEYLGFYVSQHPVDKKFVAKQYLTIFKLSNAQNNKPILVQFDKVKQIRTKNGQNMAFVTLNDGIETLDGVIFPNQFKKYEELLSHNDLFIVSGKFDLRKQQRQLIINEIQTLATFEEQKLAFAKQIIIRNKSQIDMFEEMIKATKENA

[11] = ATCC25923, read-out: MIC Sa26 + 10% SH, S. aureus Sa26 + 10% SH
[12] = ATCC25923, read-out: MIC Sa26 + 50% SH, S. aureus Sa26 + 50% SH
[13] = ATCC25923, S. aureus Sa26 ATCC 25923, sensitive strain, Mueller-Hinton Broth, 37° C., read-out: MIC Sa26
[14] = Study 5, 50 mg/kg SC BID, sample time 24 h PI
[15] = Study 6, 25 mg/kg PO BID, sample time 24 h PI
[16] = Study 7, 15 mg/kg PO BID, sample time 24 h PI
[17] = Study 7, 50 mg/kg PO BID, sample time 24 h PI
[18] = Study 8, 50 mg/kg PO QD, sample time 48 h PI
[19] = Study 9, 50 mg/kg PO BID, sample time 24 h PI
[20] = S. aureus Sa26 ATCC 25923, sensitive strain, Mueller-Hinton Broth, 37° C.
[21] = Study 1, 50 mg/kg SC BID, sample time 7 h PI
[22] = Study 2, 50 mg/kg SC BID, sample time 7 h PI
[23] = Study 3, 50 mg/kg SC BID, sample time 7 h PI
[24] = Study 4, 50 mg/kg SC BID, sample time 24 h PI
[25] = Study 6, 50 mg/kg SC BID, sample time 24 h PI
[26] = Study 7, 50 mg/kg SC BID, sample time 24 h PI
[27] = Study 8, 50 mg/kg SC QD, sample time 48 h PI
[28] = Study 9, 50 mg/kg SC BID, sample time 24 h PI

Compound | MIC (S. aureus Sa1 ATCC 13709) | MIC [1, 11] | MIC [1, 12] | MIC [1, 13] | MIC (S. aureus Sa4 NCTC 6571) | MIC [3] | MIC [4] | MIC [5] | MIC [6] | MIC (E. coli Ec1 ATCC 25922) | MIC [7] | MIC [8] | Active [9, 14] | MIC Sa1 (S. aureus Sa1 ATCC 13709) | MIC Sa26 + 10% SH ([1]; S. aureus Sa26 + 10% SH) | MIC Sa26 + 50% SH ([1]; S. aureus Sa26 + 50% SH) | MIC Sa26 [1, 20] | MIC Sa4 (S. aureus Sa4 NCTC 6571) | MIC Sa2 [2] | MIC Hi47 [5] | other results
COC[C@@H]1[C@@H](O)[C@@H]2[C@H]3C=C[C@@H]4[C@@H](COC)C(=O)O[C@H]([C@H](O)COC)[C@H](C)/C=C(\C)[C@@]24O[C@H]3[C@@H]1OC(=O)c1cc(F)c(F)[nH]1 [Compound 38, 8-O-4,5-Difluoro-1H-pyrrole-2′-carbonylbranimycin] | 32 µg/mL (≈ 52.3 µM) | > 64 µg/mL | 64 µg/mL | 64 µg/mL (≈ 105 µM) | 16 µg/mL (≈ 26.2 µM) | > 64 µg/mL | > 64 µg/mL | > 64 µg/mL | > 64 µg/mL | > 64 µg/mL | > 64 µg/mL | 8 µg/mL (≈ 13.1 µM) |  |  |  |  |  |  |  |  | MIC ([2]; Staphylococcus aureus, read-out: MIC Sa2): 32 µg/mL (≈ 52.3 µM)
CC(=O)NC[C@H]1CN(c2ccc(N3CCOCC3)c(F)c2)C(=O)O1 [Linezolid] |  |  |  |  |  |  |  |  |  |  |  |  | Y |  |  |  |  |  |  |  | Log reduction vs. untreated ([9]; Study 5, 50 mg/kg PO BID, sample time 24 h PI): −4.07; Active [9, 15]: Y; Log reduction vs. untreated [9, 15]: −4.54; Log reduction vs. untreated ([9]; Study 6, 50 mg/kg PO BID, sample time 24 h PI): −3.49; Active [9, 16]: Y; Log reduction vs. untreated [9, 16]: −2.98; Active [9, 17]: Y; Log reduction vs. untreated [9, 17]: −5.13; Active [9, 18]: Y; Log reduction vs. untreated [9, 18]: −2.78; Active [9, 19]: Y; Log reduction vs. untreated [9, 19]: −4.01
8-O-4-Bromo-5-Chloro-1H-pyrrole-2′-carbonylbranimycin [Compound 35] |  |  |  |  |  |  |  |  |  |  |  |  |  | >64 µg/mL | >64 µg/mL | >64 µg/mL | >64 µg/mL | 64 µg/mL | 64 µg/mL | >64 µg/mL | MIC Ec1 (E. coli Ec1 ATCC 25922): >64 µg/mL; MIC Ec50 efflux pump KO [7]: >64 µg/mL; MIC Ec113 efflux pump KO [8]: 64 µg/mL; IC50 semiquantitative scoring, S. aureus [10]: ** (key: ***: 0.001-1 μg/mL; **: 1.0-10 μg/mL; *: >10 μg/mL)
8-O-5-Bromo-4-Chloro-1H-pyrrole-2′-carbonylbranimycin [Compound 33] |  |  |  |  |  |  |  |  |  |  |  |  |  | >64 µg/mL | >64 µg/mL | >64 µg/mL | >64 µg/mL | 64 µg/mL | 64 µg/mL | >64 µg/mL | MIC Ec1 (E. coli Ec1 ATCC 25922): >64 µg/mL; MIC Ec50 efflux pump KO [7]: >64 µg/mL; MIC Ec113 efflux pump KO [8]: 6 µg/mL
COCC(=NO)[C@H]1OC(=O)[C@H](COC)[C@H]2C=C[C@H]3[C@H]4O[C@]2(/C(C)=C/[C@H]1C)[C@@H]3[C@H](O)[C@@H](COC)[C@H]4OC(=O)c1cc(Cl)c[nH]1 [Compound 41, 18-Deoxy-18-oximino-8-O-4-Chloro-1H-pyrrole-2′-carbonylbranimycin] | 4 µg/mL (≈ 6.42 µM) | 4 µg/mL | 32 µg/mL | 2 µg/mL (≈ 3.21 µM) | 2 µg/mL (≈ 3.21 µM) | > 64 µg/mL | > 64 µg/mL | > 64 µg/mL | > 64 µg/mL | > 64 µg/mL | 64 µg/mL (≈ 103 µM) | 2 µg/mL (≈ 3.21 µM) |  |  |  |  |  |  |  |  | IC50 [10]: 1.6 to 1600 nM
O=C(O)c1cn(C2CC2)c2cc(N3CCNCC3)c(F)cc2c1=O [Ciprofloxacin] |  |  |  |  |  |  |  |  |  |  |  |  | N |  |  |  |  |  |  |  | Active [9, 21]: N; Log reduction vs. untreated [9, 21]: −1.27; Active [9, 22]: N; Log reduction vs. untreated [9, 22]: −1.07; Active [9, 23]: N; Log reduction vs. untreated [9, 23]: 0.22; Active [9, 24]: N; Log reduction vs. untreated [9, 24]: −0.05; Log reduction vs. untreated [9, 14]: −0.27; Active [9, 25]: N; Log reduction vs. untreated [9, 25]: −0.26; Active [9, 26]: N; Log reduction vs. untreated [9, 26]: −0.08; Active [9, 27]: N; Log reduction vs. untreated [9, 27]: −0.39; Active [9, 28]: N; Log reduction vs. untreated [9, 28]: −1.28
